Measurements taken from publication PMC4490784, “Compensatory induction of MYC expression by sustained CDK9 inhibition via a BRD4-dependent mechanism” (eLife, 2015).

What was measured:
PKNB(M.tuberculosis) = biological target: T1, PKNB(M.tuberculosis) (Mycobacterium tuberculosis, UniProt P9WI81); test: KINOMEscan binding assay; conditions: 1 µM i-CDK9; read-out: % Retention on Solid Support
T1 construct: purchased DiscoveRx KINOMEscan

HeLa cells = test: Immunoblotting of MCL-1 and PARP in HeLa cell lysates; type: cell-based, human; conditions: 8 hr
Procedure: Figure 1. i-CDK9 is a potent and selective CDK9 inhibitor that elicits cellular responses indicative of P-TEFb inhibition. (A and B) Structures and selectivity profiles of i-CDK9 (A) and falvopiridol (B). […] (C) In vitro kinase reactions containing affinity-purified CDK9-F-CycT or CDK12-F-CycK and GST-CTD as a substrate were conducted in the presence of the indicated concentrations of i-CDK9. pSer2 and the Flag-tagged kinase in each reaction were detected by Western blotting with anti-pSer2 and anti-Flag antibodies, respectively. (D) HeLa cells were treated for 8 hr with DMSO or the indicated concentrations of i-CDK9. Total cell lysates were examined by immunoblotting for the proteins labeled on the left. DOI: http://dx.doi.org/10.7554/eLife.06535.003 Figure 1—source data 1. Selectivity profile of i-CDK9. DOI: http://dx.doi.org/10.7554/eLife.06535.004 Figure 1—figure supplement 1. Recombinant CDK12-CycK is less sensitive to inhibition by i-CDK9.
Inhibition of phosphorylation of both Pol II CTD and SPT5 is expected to block transcriptional elongation, which will effectively decrease the production of labile proteins from short-lived transcripts.

BTK = biological target: T2, BTK (Homo sapiens, UniProt Q06187); test: biochemical binding or enzymatic assay; conditions: Novartis
T2 construct: purchased DiscoveRx KINOMEscan
T2 sequence (Q06187 whole entry): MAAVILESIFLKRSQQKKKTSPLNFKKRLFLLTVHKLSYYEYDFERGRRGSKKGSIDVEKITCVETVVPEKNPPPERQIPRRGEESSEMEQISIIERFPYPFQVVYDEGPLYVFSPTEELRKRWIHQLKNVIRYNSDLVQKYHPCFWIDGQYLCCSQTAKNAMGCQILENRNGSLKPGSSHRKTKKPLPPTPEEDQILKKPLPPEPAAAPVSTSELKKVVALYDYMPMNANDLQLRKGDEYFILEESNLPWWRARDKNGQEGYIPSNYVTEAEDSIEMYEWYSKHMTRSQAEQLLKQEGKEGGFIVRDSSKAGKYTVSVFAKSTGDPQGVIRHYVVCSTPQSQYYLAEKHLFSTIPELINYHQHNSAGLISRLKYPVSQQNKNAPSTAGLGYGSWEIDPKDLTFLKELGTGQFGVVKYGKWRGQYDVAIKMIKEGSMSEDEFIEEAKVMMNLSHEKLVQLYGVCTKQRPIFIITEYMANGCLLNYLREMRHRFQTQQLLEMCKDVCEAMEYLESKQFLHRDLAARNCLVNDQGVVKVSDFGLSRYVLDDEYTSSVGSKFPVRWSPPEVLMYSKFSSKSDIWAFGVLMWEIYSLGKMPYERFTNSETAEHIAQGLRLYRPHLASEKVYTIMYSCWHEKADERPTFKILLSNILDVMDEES
In short: (§1)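 Read-out is either kinase activity or binding, whichever suited the target. Values come from titrating i-CDK9 in follow-up testing of KINOMEscan-profiled kinases.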

EPHB4 = biological target: T3, EPHB4 (Homo sapiens, UniProt P54760); test: biochemical binding or enzymatic assay; conditions: Novartis
T3 construct: purchased DiscoveRx KINOMEscan
T3 sequence (P54760 16-987): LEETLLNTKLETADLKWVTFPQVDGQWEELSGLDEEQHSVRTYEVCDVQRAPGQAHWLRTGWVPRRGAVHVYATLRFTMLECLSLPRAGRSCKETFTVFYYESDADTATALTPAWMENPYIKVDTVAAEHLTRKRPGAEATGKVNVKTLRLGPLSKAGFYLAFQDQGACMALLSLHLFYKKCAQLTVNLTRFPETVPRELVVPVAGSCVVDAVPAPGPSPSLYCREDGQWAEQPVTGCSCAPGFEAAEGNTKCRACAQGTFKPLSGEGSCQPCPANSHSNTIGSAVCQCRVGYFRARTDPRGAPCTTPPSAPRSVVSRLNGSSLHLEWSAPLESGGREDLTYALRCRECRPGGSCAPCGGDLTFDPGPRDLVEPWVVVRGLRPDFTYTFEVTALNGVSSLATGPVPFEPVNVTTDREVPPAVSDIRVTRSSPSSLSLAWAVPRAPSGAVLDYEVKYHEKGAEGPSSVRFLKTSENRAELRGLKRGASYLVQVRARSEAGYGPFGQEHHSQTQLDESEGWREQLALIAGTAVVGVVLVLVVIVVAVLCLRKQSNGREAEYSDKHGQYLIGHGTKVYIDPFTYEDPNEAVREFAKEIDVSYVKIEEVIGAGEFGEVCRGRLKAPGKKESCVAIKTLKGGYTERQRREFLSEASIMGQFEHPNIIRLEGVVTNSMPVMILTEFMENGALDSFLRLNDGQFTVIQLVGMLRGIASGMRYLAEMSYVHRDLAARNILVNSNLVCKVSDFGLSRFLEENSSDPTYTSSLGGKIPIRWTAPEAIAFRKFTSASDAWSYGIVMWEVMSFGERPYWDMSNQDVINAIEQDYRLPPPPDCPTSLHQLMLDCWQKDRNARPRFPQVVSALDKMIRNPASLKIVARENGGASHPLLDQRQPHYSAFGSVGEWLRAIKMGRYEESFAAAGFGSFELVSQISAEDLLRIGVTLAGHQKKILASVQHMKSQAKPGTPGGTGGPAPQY
In short: as §1

FLT3 = biological target: T4, FLT3 (Homo sapiens, UniProt P36888); test: biochemical binding or enzymatic assay; conditions: Novartis
T4 construct: purchased DiscoveRx KINOMEscan
T4 sequence (P36888 27-993): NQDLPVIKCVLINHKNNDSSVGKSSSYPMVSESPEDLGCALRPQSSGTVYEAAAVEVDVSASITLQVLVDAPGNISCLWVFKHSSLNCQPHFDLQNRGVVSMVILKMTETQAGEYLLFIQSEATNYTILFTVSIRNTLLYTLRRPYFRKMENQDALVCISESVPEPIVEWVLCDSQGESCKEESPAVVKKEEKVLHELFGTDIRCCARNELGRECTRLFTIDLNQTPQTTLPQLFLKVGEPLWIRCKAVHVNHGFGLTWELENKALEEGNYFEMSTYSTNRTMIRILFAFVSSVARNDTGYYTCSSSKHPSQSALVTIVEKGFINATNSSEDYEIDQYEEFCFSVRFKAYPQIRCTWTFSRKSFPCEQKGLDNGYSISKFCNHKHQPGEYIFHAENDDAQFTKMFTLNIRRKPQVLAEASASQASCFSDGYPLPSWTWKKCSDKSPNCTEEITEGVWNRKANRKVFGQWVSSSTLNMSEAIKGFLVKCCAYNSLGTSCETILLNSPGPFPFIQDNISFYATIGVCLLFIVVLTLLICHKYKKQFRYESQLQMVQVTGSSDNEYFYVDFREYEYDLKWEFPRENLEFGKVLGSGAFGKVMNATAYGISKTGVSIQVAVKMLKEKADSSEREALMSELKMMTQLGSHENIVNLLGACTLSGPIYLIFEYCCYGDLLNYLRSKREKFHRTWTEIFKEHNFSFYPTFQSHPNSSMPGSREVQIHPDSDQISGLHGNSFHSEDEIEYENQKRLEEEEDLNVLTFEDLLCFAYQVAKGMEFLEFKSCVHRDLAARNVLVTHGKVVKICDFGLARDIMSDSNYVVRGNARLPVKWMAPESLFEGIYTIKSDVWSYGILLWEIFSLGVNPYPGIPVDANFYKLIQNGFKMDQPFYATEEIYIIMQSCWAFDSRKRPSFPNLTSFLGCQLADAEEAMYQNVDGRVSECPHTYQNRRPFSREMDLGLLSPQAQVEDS
In short: as §1

MKNK1 = biological target: T5, MKNK1 (Homo sapiens, UniProt Q9BUB5); test: biochemical binding or enzymatic assay; conditions: Novartis
T5 construct: purchased DiscoveRx KINOMEscan
T5 sequence (Q9BUB5 whole entry): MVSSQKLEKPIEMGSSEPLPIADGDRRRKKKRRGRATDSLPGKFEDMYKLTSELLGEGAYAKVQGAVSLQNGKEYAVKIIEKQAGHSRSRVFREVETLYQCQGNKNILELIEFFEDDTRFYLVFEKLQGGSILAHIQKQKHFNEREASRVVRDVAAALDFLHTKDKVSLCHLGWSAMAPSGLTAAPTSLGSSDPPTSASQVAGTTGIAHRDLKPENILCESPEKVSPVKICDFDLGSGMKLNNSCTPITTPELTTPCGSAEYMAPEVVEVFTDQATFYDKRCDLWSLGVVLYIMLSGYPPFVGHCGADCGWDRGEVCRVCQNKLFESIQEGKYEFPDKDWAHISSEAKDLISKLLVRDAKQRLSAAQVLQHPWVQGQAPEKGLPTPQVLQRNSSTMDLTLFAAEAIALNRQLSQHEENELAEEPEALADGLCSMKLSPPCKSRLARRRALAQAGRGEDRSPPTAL
In short: as §1

PDGFRA = biological target: T6, PDGFRA (Homo sapiens, UniProt P16234); test: biochemical binding or enzymatic assay; conditions: Novartis
T6 construct: purchased DiscoveRx KINOMEscan
T6 sequence (P16234 24-1089): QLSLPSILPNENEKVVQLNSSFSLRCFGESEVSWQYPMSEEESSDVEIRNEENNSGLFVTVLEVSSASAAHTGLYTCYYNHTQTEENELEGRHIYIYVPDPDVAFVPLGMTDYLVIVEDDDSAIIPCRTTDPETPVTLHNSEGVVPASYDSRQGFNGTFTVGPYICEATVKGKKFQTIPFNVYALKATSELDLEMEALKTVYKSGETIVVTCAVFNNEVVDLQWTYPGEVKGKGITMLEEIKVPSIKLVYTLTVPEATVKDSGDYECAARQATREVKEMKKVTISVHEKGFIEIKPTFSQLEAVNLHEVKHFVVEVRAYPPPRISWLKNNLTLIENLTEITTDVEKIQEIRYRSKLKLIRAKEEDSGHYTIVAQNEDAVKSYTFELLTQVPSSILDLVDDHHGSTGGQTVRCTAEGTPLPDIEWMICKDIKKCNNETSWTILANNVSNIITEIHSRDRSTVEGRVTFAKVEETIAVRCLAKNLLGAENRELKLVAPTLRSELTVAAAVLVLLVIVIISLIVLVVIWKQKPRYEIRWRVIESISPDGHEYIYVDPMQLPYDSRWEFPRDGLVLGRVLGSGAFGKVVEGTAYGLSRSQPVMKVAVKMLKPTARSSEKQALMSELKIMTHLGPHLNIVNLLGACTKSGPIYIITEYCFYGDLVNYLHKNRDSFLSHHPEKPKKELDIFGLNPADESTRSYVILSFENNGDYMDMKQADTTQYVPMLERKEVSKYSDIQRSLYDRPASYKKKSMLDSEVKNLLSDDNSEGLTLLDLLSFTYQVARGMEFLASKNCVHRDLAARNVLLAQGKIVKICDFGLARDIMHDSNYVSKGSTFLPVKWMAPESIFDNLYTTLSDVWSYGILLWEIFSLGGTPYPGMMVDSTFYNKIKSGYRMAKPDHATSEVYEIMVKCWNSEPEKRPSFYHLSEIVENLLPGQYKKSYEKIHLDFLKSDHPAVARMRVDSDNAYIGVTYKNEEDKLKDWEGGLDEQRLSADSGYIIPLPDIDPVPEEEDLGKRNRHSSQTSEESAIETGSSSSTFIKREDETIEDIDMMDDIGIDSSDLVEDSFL
In short: as §1

[1] = biological target: JAK1(JH1domain-catalytic) (Homo sapiens, UniProt P23458); test: biochemical binding or enzymatic assay; parameters: JAK1(JH1domain-catalytic); conditions: Novartis
JAK1(JH1domain-catalytic), sequence (P23458 875-1153 limits assumed): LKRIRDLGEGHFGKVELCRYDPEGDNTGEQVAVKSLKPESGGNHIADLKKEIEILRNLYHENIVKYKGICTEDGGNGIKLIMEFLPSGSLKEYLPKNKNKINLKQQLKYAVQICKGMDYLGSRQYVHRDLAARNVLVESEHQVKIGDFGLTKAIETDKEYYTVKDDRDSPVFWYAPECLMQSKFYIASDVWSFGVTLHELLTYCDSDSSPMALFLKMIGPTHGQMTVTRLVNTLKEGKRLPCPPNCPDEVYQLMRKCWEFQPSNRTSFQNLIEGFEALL
Procedure: (§2) Finally, the selectivity profile of i-CDK9 toward other non-CDK kinases was also assessed using the KINOMEscan platform. […] Except for CLK4, for which no suitable assay was available, the rest of the kinases plus a selected group of others were re-examined for the concentration-dependent effect of i-CDK9 in either functional kinase assays or binding assays. […] Indeed, it has recently been reported that DYRK1A acts as a Pol II CTD Kinase at its target gene promoters ([Di Vona et al., 2015]).

[2] = biological target: JAK2(JH1domain-catalytic) (Homo sapiens, UniProt O60674); test: biochemical binding or enzymatic assay; parameters: JAK2(JH1domain-catalytic); conditions: Novartis
JAK2(JH1domain-catalytic), sequence (O60674 849-1124 limits assumed): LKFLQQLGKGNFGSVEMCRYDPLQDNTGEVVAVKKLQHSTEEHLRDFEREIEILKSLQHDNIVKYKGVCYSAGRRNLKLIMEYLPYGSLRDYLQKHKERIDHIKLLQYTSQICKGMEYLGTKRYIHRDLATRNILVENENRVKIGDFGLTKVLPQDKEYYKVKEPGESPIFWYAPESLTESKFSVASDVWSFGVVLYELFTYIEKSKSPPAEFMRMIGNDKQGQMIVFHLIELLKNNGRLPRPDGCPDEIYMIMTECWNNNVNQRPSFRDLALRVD
Procedure: as §2

[3] = biological target: JAK1(JH2domain-pseudokinase) (Homo sapiens, UniProt P23458); test: biochemical binding or enzymatic assay; parameters: JAK1(JH2domain-pseudokinase); conditions: Novartis
JAK1(JH2domain-pseudokinase), sequence (P23458 583-855 limits assumed): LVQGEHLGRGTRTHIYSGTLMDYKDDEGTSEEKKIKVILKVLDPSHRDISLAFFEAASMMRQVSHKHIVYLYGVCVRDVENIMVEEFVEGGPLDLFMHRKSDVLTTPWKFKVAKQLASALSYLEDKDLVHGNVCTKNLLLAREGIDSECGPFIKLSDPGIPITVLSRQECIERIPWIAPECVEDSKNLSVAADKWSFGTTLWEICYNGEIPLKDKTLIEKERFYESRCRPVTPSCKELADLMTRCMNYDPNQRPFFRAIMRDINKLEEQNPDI
Procedure: as §2

CDK9 = CDK9 (Homo sapiens, UniProt P50750); test: KINOMEscan binding assay; parameters: purchased DiscoveRx KINOMEscan; conditions: read-out: % Retention on Solid Support
CDK9, sequence (P50750 whole entry): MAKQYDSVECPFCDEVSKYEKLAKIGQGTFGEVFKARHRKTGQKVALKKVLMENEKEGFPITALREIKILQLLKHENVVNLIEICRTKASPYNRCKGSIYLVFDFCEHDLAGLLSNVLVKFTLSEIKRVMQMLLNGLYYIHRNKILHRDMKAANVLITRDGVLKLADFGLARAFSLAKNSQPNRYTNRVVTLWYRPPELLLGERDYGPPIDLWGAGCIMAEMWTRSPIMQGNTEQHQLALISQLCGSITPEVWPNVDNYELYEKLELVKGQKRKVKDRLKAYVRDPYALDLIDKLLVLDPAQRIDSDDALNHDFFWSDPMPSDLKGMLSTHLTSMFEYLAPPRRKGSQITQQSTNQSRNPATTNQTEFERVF
Procedure: As there are no commercial or in-house kinase assays available for CDK3, CDK5, CDK11 and CDK13, the inhibitory abilities of i-CDK9 toward these CDKs were thus evaluated in the DiscoveRx KINOMEscan assay, which is based on a proprietary active site-directed competition-binding platform ([Fabian et al., 2005]).
The inhibitory activity of i-CDK9 for CDK1-CycB (Upstate/Millipore), CDK2-CycA (Invitrogen), CDK4-CycD1 (Novartis), CDK7-CycH-MAT1 (Invitrogen), and CDK9-CycT1 (Invitrogen) was assessed in the AlphaScreen (PerkinElmer, Inc)-based kinase assay developed at Novartis. Briefly, each CDK–cyclin pair was pre-incubated with i-CDK9 for 15 min, followed by addition of kinase substrates (ELK for CDK1 and CDK2, RB for CDK4, and CDK7tide for CDK7 and CDK9). The mixture was incubated at room temperature for additional 4–5 hr. The reaction was stopped and read on Envision (PerkinElmer, Inc). Selectivity against a large panel of over 400 kinases was evaluated using the KINOMEscan platform (DiscoveRx, CA) employing a proprietary active site-directed competition binding assay ([Fabian et al., 2005]). The assay was conducted at two different concentrations of i-CDK9 (1 and 10 µM) by DiscoveRx.

T1 sequence (P9WI81 whole entry): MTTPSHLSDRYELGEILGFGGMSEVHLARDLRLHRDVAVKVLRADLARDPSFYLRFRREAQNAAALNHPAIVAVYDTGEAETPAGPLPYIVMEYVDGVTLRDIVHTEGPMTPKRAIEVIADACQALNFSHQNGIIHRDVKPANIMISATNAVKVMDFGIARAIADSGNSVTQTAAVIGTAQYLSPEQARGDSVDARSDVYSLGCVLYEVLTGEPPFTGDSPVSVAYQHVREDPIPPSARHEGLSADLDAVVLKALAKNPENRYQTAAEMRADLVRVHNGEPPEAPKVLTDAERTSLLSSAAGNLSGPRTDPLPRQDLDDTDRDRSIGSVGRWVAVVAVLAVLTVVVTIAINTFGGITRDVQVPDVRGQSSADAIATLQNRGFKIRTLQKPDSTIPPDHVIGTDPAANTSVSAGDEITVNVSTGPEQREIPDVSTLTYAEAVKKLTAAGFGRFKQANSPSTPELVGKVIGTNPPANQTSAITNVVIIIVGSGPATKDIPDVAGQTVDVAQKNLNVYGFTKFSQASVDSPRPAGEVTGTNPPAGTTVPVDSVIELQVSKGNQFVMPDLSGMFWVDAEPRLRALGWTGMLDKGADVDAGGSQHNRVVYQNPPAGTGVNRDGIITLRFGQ

In the case of `N[C@H]1CC[C@H](Nc2cc(-c3cccc(NCc4cccc(F)c4)n3)c(Cl)cn2)CC1` [i-CDK9, N2′-(trans-4-aminocyclohexyl)-5′-chloro-N6-(3-fluorobenzyl)-2,4′-bipyridine-2′,6-diamine], the remaining binding at 1 µM (PKNB(M.tuberculosis)) is reported as 100%, the “cleavage of PARP” value (HeLa cells) is reported as “induced proteolytic cleavage” and the “expression of MCL-1” value (HeLa cells) is reported as “markedly down-regulated”. For the same compound, the IC50 (BTK) was > 10 µM, the IC50 (EPHB4) was > 10 µM and the IC50 (FLT3) was > 10 µM. For the same compound, the IC50 (MKNK1) was > 10 µM, the IC50 (PDGFRA) was > 10 µM and the IC50 [1] was > 10 µM. For the same compound, the IC50 [2] was > 10 µM, the IC50 [3] was > 10 µM and the remaining binding at 1 µM (CDK9; 1 µM i-CDK9) was 5.1%. For the same compound, the remaining binding at 10 µM (CDK9; 10 µM i-CDK9) was 0%.
